Converted amounts (≈) assume the structure as drawn. Bridge positions count the residues as written; N and C are the ends. Square brackets hold non-standard residues; d marks the D form. Peptide text beside a SMILES is read from it. I, II: the chains in the order shown. * marks the point of attachment. ξ: configuration not given here. Lauroyl = CCCCCCCCCCCC(=O)*; Decanoyl = CCCCCCCCCC(=O)*; Octanoyl = CCCCCCCC(=O)*; Hexanoyl = CCCCCC(=O)*; ξK = NCCCCC(N)C(=O)O; Butyryl = CCCC(=O)*
Experiments:
[1] = test system: Staphylococcus aureus; assay: Antibacterial activity against Staphylococcus aureus ATCC 25923 assessed as reduction in bacterial cell growth incubated for 16 to 24 hrs by CLSI-protocol based Mueller-Hinton Broth micro-dilution method; assay type: functional; settings: time 16-24 hrs
[2] = test system: Erythrocyte; assay: Hemolytic activity in human erythrocyte incubated for 70 mins by absorbance based assay; assay type: toxicity, cell-based; settings: 1.167 h
[3] = test system: Klebsiella pneumoniae; assay: Antibacterial activity against Klebsiella pneumoniae ATCC 700603 assessed as reduction in bacterial cell growth incubated for 16 to 24 hrs by CLSI-protocol based Mueller-Hinton Broth micro-dilution method; assay type: functional; settings: time 16-24 hrs
[4] = test system: Bacillus subtilis; assay: Antibacterial activity against Bacillus subtilis ATCC 23857 assessed as reduction in bacterial cell growth incubated for 16 to 24 hrs by CLSI-protocol based Mueller-Hinton Broth micro-dilution method; assay type: functional; settings: time 16-24 hrs
[5] = test system: Escherichia coli; assay: Antibacterial activity against Escherichia coli ATCC 25922 assessed as reduction in bacterial cell growth incubated for 16 to 24 hrs by CLSI-protocol based Mueller-Hinton Broth micro-dilution method; assay type: functional; settings: time 16-24 hrs
[6] = test system: Pseudomonas aeruginosa; assay: Antibacterial activity against Pseudomonas aeruginosa ATCC 27853 assessed as reduction in bacterial cell growth incubated for 16 to 24 hrs by CLSI-protocol based Mueller-Hinton Broth micro-dilution method; assay type: functional; settings: time 16-24 hrs

Compound	MIC [1]	HC10 [2]	MIC [3]	MIC [4]	MIC [5]	MIC [6]
CCCC(=O)NCC(=O)N[C@@H](CC(C)C)C(=O)N[C@@H](CC(C)C)C(=O)N[C@@H](CCCCN)C(=O)N[C@@H](CCCNC(=N)N)C(=O)N[C@H](C(=O)N[C@@H](CCCCN)C(=O)N[C@H](C(=O)N[C@@H](CC(C)C)C(=O)N[C@@H](CC(C)C)C(N)=O)[C@@H](C)O)[C@@H](C)CC (Butyryl-GLLKRIKTLL-NH2)	256 µM (≈ 313 µg/mL)	> 256 µM	256 µM (≈ 313 µg/mL)	256 µM (≈ 313 µg/mL)	256 µM (≈ 313 µg/mL)	64 µM (≈ 78.3 µg/mL)
CCCCCCCCCC(=O)NCC(=O)N[C@@H](CC(C)C)C(=O)N[C@@H](CC(C)C)C(=O)N[C@@H](CCCCN)C(=O)N[C@@H](CCCNC(=N)N)C(=O)N[C@H](C(=O)N[C@@H](CCCCN)C(=O)N[C@H](C(=O)N[C@@H](CC(C)C)C(=O)N[C@@H](CC(C)C)C(N)=O)[C@@H](C)O)[C@@H](C)CC (Decanoyl-GLLKRIKTLL-NH2)	8 µM (≈ 10.5 µg/mL)	16.36 µM	16 µM (≈ 20.9 µg/mL)	8 µM (≈ 10.5 µg/mL)	16 µM (≈ 20.9 µg/mL)	8 µM (≈ 10.5 µg/mL)
CCCCCC(=O)NCC(=O)N[C@@H](CC(C)C)C(=O)N[C@@H](CC(C)C)C(=O)N[C@@H](CCCCN)C(=O)N[C@@H](CCCNC(=N)N)C(=O)N[C@H](C(=O)N[C@@H](CCCCN)C(=O)N[C@H](C(=O)N[C@@H](CC(C)C)C(=O)N[C@@H](CC(C)C)C(N)=O)[C@@H](C)O)[C@@H](C)CC (Hexanoyl-GLLKRIKTLL-NH2)	64 µM (≈ 80.1 µg/mL)	> 256 µM	128 µM (≈ 160 µg/mL)	16 µM (≈ 20 µg/mL)	128 µM (≈ 160 µg/mL)	16 µM (≈ 20 µg/mL)
CCCC(=O)NCC(=O)N[C@@H](CC(C)C)C(=O)N[C@@H](CC(C)C)C(=O)N[C@@H](CCCCN)C(=O)N[C@@H](CCCNC(=N)N)C(=O)N[C@H](C(=O)N[C@@H](CCCCN)C(=O)N[C@H](C(=O)N[C@@H](CC(C)C)C(=O)N[C@@H](CC(C)C)C(=O)NCCCCC(NC(=O)[C@H](CC(C)C)NC(=O)[C@H](CC(C)C)NC(=O)[C@@H](NC(=O)[C@H](CCCCN)NC(=O)[C@@H](NC(=O)[C@H](CCCNC(=N)N)NC(=O)[C@H](CCCCN)NC(=O)[C@H](CC(C)C)NC(=O)[C@H](CC(C)C)NC(=O)CNC(=O)CCC)[C@@H](C)CC)[C@@H](C)O)C(N)=O)[C@@H](C)O)[C@@H](C)CC (stereo not given in full) (I: Butyryl-GLLKRIKTLL[ξK]-NH2 / II: Butyryl-GLLKRIKTLL; amide I:11-II:C)	8 µM (≈ 20.5 µg/mL)	27.61 µM	8 µM (≈ 20.5 µg/mL)	4 µM (≈ 10.2 µg/mL)	4 µM (≈ 10.2 µg/mL)	8 µM (≈ 20.5 µg/mL)
CCCCCCCCCC(=O)NCC(=O)N[C@@H](CC(C)C)C(=O)N[C@@H](CC(C)C)C(=O)N[C@@H](CCCCN)C(=O)N[C@@H](CCCNC(=N)N)C(=O)N[C@H](C(=O)N[C@@H](CCCCN)C(=O)N[C@H](C(=O)N[C@@H](CC(C)C)C(=O)N[C@@H](CC(C)C)C(=O)NCCCCC(NC(=O)[C@H](CC(C)C)NC(=O)[C@H](CC(C)C)NC(=O)[C@@H](NC(=O)[C@H](CCCCN)NC(=O)[C@@H](NC(=O)[C@H](CCCNC(=N)N)NC(=O)[C@H](CCCCN)NC(=O)[C@H](CC(C)C)NC(=O)[C@H](CC(C)C)NC(=O)CNC(=O)CCCCCCCCC)[C@@H](C)CC)[C@@H](C)O)C(N)=O)[C@@H](C)O)[C@@H](C)CC (stereo not given in full) (I: Decanoyl-GLLKRIKTLL[ξK]-NH2 / II: Decanoyl-GLLKRIKTLL; amide I:11-II:C)	256 µM (≈ 698 µg/mL)	26.56 µM	128 µM (≈ 349 µg/mL)	256 µM (≈ 698 µg/mL)	64 µM (≈ 175 µg/mL)	256 µM (≈ 698 µg/mL)
CC[C@H](C)[C@H](NC(=O)[C@H](CCCNC(=N)N)NC(=O)[C@H](CCCCN)NC(=O)[C@H](CC(C)C)NC(=O)[C@H](CC(C)C)NC(=O)CN)C(=O)N[C@@H](CCCCN)C(=O)N[C@H](C(=O)N[C@@H](CC(C)C)C(=O)N[C@@H](CC(C)C)C(=O)NCCCCC(NC(=O)[C@H](CC(C)C)NC(=O)[C@H](CC(C)C)NC(=O)[C@@H](NC(=O)[C@H](CCCCN)NC(=O)[C@@H](NC(=O)[C@H](CCCNC(=N)N)NC(=O)[C@H](CCCCN)NC(=O)[C@H](CC(C)C)NC(=O)[C@H](CC(C)C)NC(=O)CN)[C@@H](C)CC)[C@@H](C)O)C(N)=O)[C@@H](C)O (stereo not given in full) (I: H-GLLKRIKTLL[ξK]-NH2 / II: H-GLLKRIKTLL; amide I:11-II:C)	16 µM (≈ 38.7 µg/mL)	51.2 µM	8 µM (≈ 19.3 µg/mL)	4 µM (≈ 9.67 µg/mL)	8 µM (≈ 19.3 µg/mL)	8 µM (≈ 19.3 µg/mL)
CCCCCC(=O)NCC(=O)N[C@@H](CC(C)C)C(=O)N[C@@H](CC(C)C)C(=O)N[C@@H](CCCCN)C(=O)N[C@@H](CCCNC(=N)N)C(=O)N[C@H](C(=O)N[C@@H](CCCCN)C(=O)N[C@H](C(=O)N[C@@H](CC(C)C)C(=O)N[C@@H](CC(C)C)C(=O)NCCCCC(NC(=O)[C@H](CC(C)C)NC(=O)[C@H](CC(C)C)NC(=O)[C@@H](NC(=O)[C@H](CCCCN)NC(=O)[C@@H](NC(=O)[C@H](CCCNC(=N)N)NC(=O)[C@H](CCCCN)NC(=O)[C@H](CC(C)C)NC(=O)[C@H](CC(C)C)NC(=O)CNC(=O)CCCCC)[C@@H](C)CC)[C@@H](C)O)C(N)=O)[C@@H](C)O)[C@@H](C)CC (stereo not given in full) (I: Hexanoyl-GLLKRIKTLL[ξK]-NH2 / II: Hexanoyl-GLLKRIKTLL; amide I:11-II:C)	8 µM (≈ 20.9 µg/mL)	6.08 µM	8 µM (≈ 20.9 µg/mL)	8 µM (≈ 20.9 µg/mL)	4 µM (≈ 10.5 µg/mL)	16 µM (≈ 41.8 µg/mL)
CCCCCCCCCCCC(=O)NCC(=O)N[C@@H](CC(C)C)C(=O)N[C@@H](CC(C)C)C(=O)N[C@@H](CCCCN)C(=O)N[C@@H](CCCNC(=N)N)C(=O)N[C@H](C(=O)N[C@@H](CCCCN)C(=O)N[C@H](C(=O)N[C@@H](CC(C)C)C(=O)N[C@@H](CC(C)C)C(=O)NCCCCC(NC(=O)[C@H](CC(C)C)NC(=O)[C@H](CC(C)C)NC(=O)[C@@H](NC(=O)[C@H](CCCCN)NC(=O)[C@@H](NC(=O)[C@H](CCCNC(=N)N)NC(=O)[C@H](CCCCN)NC(=O)[C@H](CC(C)C)NC(=O)[C@H](CC(C)C)NC(=O)CNC(=O)CCCCCCCCCCC)[C@@H](C)CC)[C@@H](C)O)C(N)=O)[C@@H](C)O)[C@@H](C)CC (stereo not given in full) (I: Lauroyl-GLLKRIKTLL[ξK]-NH2 / II: Lauroyl-GLLKRIKTLL; amide I:11-II:C)	256 µM (≈ 712 µg/mL)	15.16 µM	256 µM (≈ 712 µg/mL)	256 µM (≈ 712 µg/mL)	128 µM (≈ 356 µg/mL)	256 µM (≈ 712 µg/mL)
CCCCCCCC(=O)NCC(=O)N[C@@H](CC(C)C)C(=O)N[C@@H](CC(C)C)C(=O)N[C@@H](CCCCN)C(=O)N[C@@H](CCCNC(=N)N)C(=O)N[C@H](C(=O)N[C@@H](CCCCN)C(=O)N[C@H](C(=O)N[C@@H](CC(C)C)C(=O)N[C@@H](CC(C)C)C(=O)NCCCCC(NC(=O)[C@H](CC(C)C)NC(=O)[C@H](CC(C)C)NC(=O)[C@@H](NC(=O)[C@H](CCCCN)NC(=O)[C@@H](NC(=O)[C@H](CCCNC(=N)N)NC(=O)[C@H](CCCCN)NC(=O)[C@H](CC(C)C)NC(=O)[C@H](CC(C)C)NC(=O)CNC(=O)CCCCCCC)[C@@H](C)CC)[C@@H](C)O)C(N)=O)[C@@H](C)O)[C@@H](C)CC (stereo not given in full) (I: Octanoyl-GLLKRIKTLL[ξK]-NH2 / II: Octanoyl-GLLKRIKTLL; amide I:11-II:C)	64 µM (≈ 171 µg/mL)	5.67 µM	32 µM (≈ 85.5 µg/mL)	32 µM (≈ 85.5 µg/mL)	16 µM (≈ 42.7 µg/mL)	128 µM (≈ 342 µg/mL)
CCCCCCCCCCCC(=O)NCC(=O)N[C@@H](CC(C)C)C(=O)N[C@@H](CC(C)C)C(=O)N[C@@H](CCCCN)C(=O)N[C@@H](CCCNC(=N)N)C(=O)N[C@H](C(=O)N[C@@H](CCCCN)C(=O)N[C@H](C(=O)N[C@@H](CC(C)C)C(=O)N[C@@H](CC(C)C)C(N)=O)[C@@H](C)O)[C@@H](C)CC (Lauroyl-GLLKRIKTLL-NH2)	16 µM (≈ 21.4 µg/mL)	11.38 µM	128 µM (≈ 171 µg/mL)	16 µM (≈ 21.4 µg/mL)	64 µM (≈ 85.5 µg/mL)	32 µM (≈ 42.7 µg/mL)
CCCCCCCC(=O)NCC(=O)N[C@@H](CC(C)C)C(=O)N[C@@H](CC(C)C)C(=O)N[C@@H](CCCCN)C(=O)N[C@@H](CCCNC(=N)N)C(=O)N[C@H](C(=O)N[C@@H](CCCCN)C(=O)N[C@H](C(=O)N[C@@H](CC(C)C)C(=O)N[C@@H](CC(C)C)C(N)=O)[C@@H](C)O)[C@@H](C)CC (Octanoyl-GLLKRIKTLL-NH2)	8 µM (≈ 10.2 µg/mL)	210.63 µM	16 µM (≈ 20.5 µg/mL)	8 µM (≈ 10.2 µg/mL)	16 µM (≈ 20.5 µg/mL)	8 µM (≈ 10.2 µg/mL)
I: Butyryl-GLLKRIKTLL[ξK][ξK]-NH2 / II: Butyryl-GLLKRIKTLL[ξK] / III: Butyryl-GLLKRIKTLL / IV: Butyryl-GLLKRIKTLL (amide I:11-IV:C, I:12-II:C, II:11-III:C)	16 µM	1.06 µM	32 µM	16 µM	8 µM	8 µM
I: Decanoyl-GLLKRIKTLL[ξK][ξK]-NH2 / II: Decanoyl-GLLKRIKTLL[ξK] / III: Decanoyl-GLLKRIKTLL / IV: Decanoyl-GLLKRIKTLL (amide I:11-IV:C, I:12-II:C, II:11-III:C)	256 µM	12.51 µM	256 µM	256 µM	256 µM	256 µM
I: H-GLLKRIKTLL[ξK][ξK]-NH2 / II: H-GLLKRIKTLL[ξK] / III: H-GLLKRIKTLL / IV: H-GLLKRIKTLL (amide I:11-IV:C, I:12-II:C, II:11-III:C)	8 µM	1.31 µM	16 µM	8 µM	8 µM	8 µM
I: Hexanoyl-GLLKRIKTLL[ξK][ξK]-NH2 / II: Hexanoyl-GLLKRIKTLL[ξK] / III: Hexanoyl-GLLKRIKTLL / IV: Hexanoyl-GLLKRIKTLL (amide I:11-IV:C, I:12-II:C, II:11-III:C)	32 µM	10.91 µM	32 µM	32 µM	32 µM	32 µM

From ChEMBL document CHEMBL5608163, “Structure modification of anoplin for fighting resistant bacteria” (Eur J Med Chem, 2024)
